Measured values published in patent US8785439B2, “2,5,7-substituted oxazolopyrimidine derivatives” (Sanofi, priority 2010, dated 2014).

The compounds below were run against T1, human Edg-1 receptor (Homo sapiens, UniProt P21453) (assay: GTP-γ-S assay using human Edg-1 receptors (SPA, CHO Flp-In cell membrane preparation)). Conditions: test compound at 10 μM; high control 10 μM S1P regarded as 100% activation; background-corrected; triplicate; read-out: % Activation (Edg-1 receptor activation in percent of the activation by 10 μM S1P).
T1 construct: FLAG (N); expressed in transfected cells; membrane preparation
Type: biochemical
Source text: Determination of the Pharmacological Activity A) GTP-γ-S Assay Using Human Edg-1 Receptors
In order to determine the Edg-1 receptor activation by the compounds of the invention, a GTP-γ-S (guanosine 5′-[γ-thio]triphosphate) assay for G-protein coupled receptor binding based on the scintillation proximity assay principle was used, employing a cell membrane preparation from a CHO Flp-In cell line which constitutively overexpresses the human Edg-1 receptor.
The Flp-In™ expression system (Invitrogen, cat. no. K6010-01) allows the generation of stable mammalian cell lines into which the gene of interest has been integrated through homologous recombination at a specific genomic location called Flp Recombination Target (FRT) site by means of a Flp recombinase encoded by the pOG44 expression plasmid. The integration of the pcDNA5/FRT expression construct into the Flp-In host cell line genome results in the transcription of the gene of interest. The stably transfected cells become hygromycin-resistant.
One day prior to transfection, 200 000 Flp-In-CHO cells were seeded in Ham F-12 medium (Invitrogen, cat. no. 31765) supplemented with 10% fetal calf serum (FCS; Perbio Science, cat. no. SH30068.03) in a 6-well plate and incubated at 37° C./5% CO2 overnight. Using the FuGENE® 6 transfection reagent (Roche, cat. no. 11988387001), cells were cotransfected with the Flp recombinase expression plasmid pOG44 and a modified plasmid additionally containing the edg-1 gene (accession no. NM_001400) termed as pcDNA5-FRT-TO_nFLAG_DEST-EDG-1 with a 9:1 ratio. To obtain the modified pcDNA5-FRT-TO_nFLAG_DEST plasmid, the Invitrogen plasmid pcDNA5/FRT/TO (Invitrogen, cat. no. V6520-20) was adapted to the Gateway® (Invitrogen) cloning system by inserting a Gateway cassette containing attR recombination sites flanking a ccdB gene and a chloramphenicol-resistance gene (Gateway conversion system, Invitrogen, cat. no. 11828-029). In addition a FLAG tag epitope was added before the 5′ att recombination site to allow recombinant expression of N-terminally FLAG-tagged proteins.
For the transfection of one well, 1.08 μg of pOG44 and 0.12 μg of pcDNA5-FRT-TO_nFLAG_DEST-EDG-1 were mixed with 100 μl of serum-free Ham F-12 medium containing 6 μl of FuGENE® 6 transfection reagent. After 20 min of incubation, the transfection reagent/DNA complex was distributed dropwise on the cells. The cells were incubated for 24 h at 37° C. Then the cells from 3 wells each were transferred to a T75 flask (Greiner Cellstar®, cat. no. 658175) containing Ham F-12 medium supplemented with 10% of FCS but without antibiotic and were incubated another 24 h. 48 h after transfection, the medium was replaced by selection medium (Ham F-12 supplemented with 10% of FCS and 300 μg/ml of hygromycin B (Invitrogen, cat. no. 10687-010)). The medium was exchanged every 2 to 3 days until a resistant population of cells had grown. […] After 2 weeks of selection, the cells were transferred into T175 flasks (Greiner Cellstar®, cat. no. 660175) and cultivated for batch production. Cells were harvested from the culture flasks by short treatment (2 to 5 min) with Accutase (PAA, cat. no. L11-007), resuspended in selection medium (see above) and centrifuged at 200×g for 5 min. Cells were resuspended in a mixture of 90% of FCS and 10% of dimethylsulfoxide and stored frozen in liquid nitrogen.
A membrane preparation was obtained by standard methods from the afore-described CHO Flp-In cell line constitutively overexpressing the human Edg-1 receptor. Briefly, the cryopreserved cells were taken in culture and grown until confluency in T175 cell culture flasks (Becton Dickinson, cat. no. 35 5001). […]

T1 sequence (P21453 whole entry): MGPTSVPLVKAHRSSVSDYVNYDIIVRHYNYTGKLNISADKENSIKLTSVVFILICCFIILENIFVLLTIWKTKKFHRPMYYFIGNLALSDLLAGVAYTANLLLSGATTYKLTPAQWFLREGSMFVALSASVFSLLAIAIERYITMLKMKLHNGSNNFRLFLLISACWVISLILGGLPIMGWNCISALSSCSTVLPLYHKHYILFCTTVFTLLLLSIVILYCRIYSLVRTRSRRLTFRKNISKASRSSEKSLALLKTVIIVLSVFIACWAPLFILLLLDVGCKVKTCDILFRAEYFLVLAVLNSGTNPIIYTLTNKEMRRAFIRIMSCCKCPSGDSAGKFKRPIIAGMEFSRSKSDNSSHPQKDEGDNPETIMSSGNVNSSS

Compound	activation at 10 µM
CCCOc1nc(Sc2nccs2)nc2oc(-c3cc(F)ccc3Cl)nc12 [Example 59, 2-(2-chloro-5-fluoro-phenyl)-7-propoxy-5-(thiazol-2-ylsulfanyl)-oxazolo[5,4-d]pyrimidine]	103%
CCCOc1nc(Oc2ccccc2)nc2oc(-c3cccc(F)c3)nc12 [Example 61, 2-(3-fluoro-phenyl)-5-phenoxy-7-propoxy-oxazolo[5,4-d]pyrimidine]	74%
CCCOc1nc(OC2CCCCC2)nc2oc(-c3cccc(F)c3)nc12 [Example 62, 5-cyclohexyloxy-2-(3-fluoro-phenyl)-7-propoxy-oxazolo[5,4-d]pyrimidine]	111%
CCCOc1nc(NC2CCC(F)(F)CC2)nc2oc(-c3cc(F)ccc3Cl)nc12 [Example 64, [2-(2-chloro-5-fluoro-phenyl)-7-propoxy-oxazolo[5,4-d]pyrimidin-5-yl]-(4,4-difluoro-cyclohexyl)-amine]	109%
CCCOc1nc(NN2CCOCC2)nc2oc(-c3cccc(C)c3)nc12 [Example 65, morpholin-4-yl-(7-propoxy-2-(3-methyl-phenyl)-oxazolo[5,4-d]pyrimidin-5-yl)-amine]	105%
CCCOc1nc(Oc2cccc(SC(F)(F)F)c2)nc2oc(-c3cccc(F)c3)nc12 [Example 69, 2-(3-fluoro-phenyl)-7-propoxy-5-(3-trifluoromethylsulfanyl-phenoxy)-oxazolo[5,4-d]pyrimidine]	41%
CCCOc1nc(OC2CCC(C)CC2)nc2oc(-c3cccc(C)c3)nc12 (stereo not drawn) [Example 70, 5-(4-methyl-cyclohexyloxy)-7-propoxy-2-(3-methyl-phenyl)-oxazolo[5,4-d]pyrimidine]	77%
CCCOc1nc(OC2CCOCC2)nc2oc(-c3cccc(C)c3)nc12 [Example 71, 7-propoxy-5-(tetrahydro-pyran-4-yloxy)-2-(3-methyl-phenyl)-oxazolo[5,4-d]pyrimidine]	102%
CCCOc1nc(Oc2ccc(C)cc2)nc2oc(-c3cccc(C)c3)nc12 [Example 73, 7-propoxy-2-(3-methyl-phenyl)-5-p-tolyloxy-oxazolo[5,4-d]pyrimidine]	80%
CCCOc1nc(Oc2ccccn2)nc2oc(-c3cccc(C)c3)nc12 [Example 76, 7-propoxy-5-(pyridin-2-yloxy)-2-(3-methyl-phenyl)-oxazolo[5,4-d]pyrimidine]	81%
CCCOc1nc(Oc2cccnc2)nc2oc(-c3cccc(C)c3)nc12 [Example 77, 7-propoxy-5-(pyridin-3-yloxy)-2-(3-methyl-phenyl)-oxazolo[5,4-d]pyrimidine]	111%
CCCOc1nc(Oc2ccc(SC(F)(F)F)cc2)nc2oc(-c3cccc(F)c3)nc12 [Example 82, 2-(3-fluoro-phenyl)-7-propoxy-5-(4-trifluoromethylsulfanyl-phenoxy)-oxazolo[5,4-d]pyrimidine]	107%
CCCOc1nc(Oc2c(Cl)cccc2Cl)nc2oc(-c3cccc(C)c3)nc12 [Example 86, 5-(2,6-dichloro-phenoxy)-7-propoxy-2-(3-methyl-phenyl)-oxazolo[5,4-d]pyrimidine]	98%
CCCOc1nc(Oc2cccc(C#N)c2)nc2oc(-c3cccc(C)c3)nc12 [Example 87, 3-(7-propoxy-2-(3-methyl-phenyL)-oxazolo[5,4-d]pyrimidin-5-yloxy)-benzonitrile]	93%

Next, values leading:

activation at 10 µM	Compound
80%	CCCOc1nc(Oc2ccc(Cl)cc2OC)nc2oc(-c3cccc(F)c3)nc12 [Example 60, 5-(4-chloro-2-methoxy-phenoxy)-2-(3-fluoro-phenyl)-7-propoxy-oxazolo[5,4-d]pyrimidine]
80%	CCCOc1nc(Oc2ccc(Cl)cc2OC)nc2oc(-c3cc(F)ccc3Cl)nc12 [Example 63, 2-(2-chloro-5-fluoro-phenyl)-5-(4-chloro-2-methoxy-phenoxy)-7-propoxy-oxazolo[5,4-d]pyrimidine]
106%	CCCOc1nc(Oc2cc(Cl)ccc2C)nc2oc(-c3cc(F)ccc3Cl)nc12 [Example 66, 2-(2-chloro-5-fluoro-phenyl)-5-(5-chloro-2-methyl-phenoxy)-7-propoxy-oxazolo[5,4-d]pyrimidine]
84%	CCCOc1nc(Oc2cc(Cl)ccc2C)nc2oc(-c3cccc(F)c3)nc12 [Example 67, 5-(5-chloro-2-methyl-phenoxy)-2-(3-fluoro-phenyl)-7-propoxy-oxazolo[5,4-d]pyrimidine]
41%	CCCOc1nc(Oc2cccc(SC(F)(F)F)c2)nc2oc(-c3cc(F)ccc3Cl)nc12 [Example 68, 2-(2-chloro-5-fluoro-phenyl)-7-propoxy-5-(3-trifluoromethylsulfanyl-phenoxy)-oxazolo[5,4-d]pyrimidine]
95%	CCCOc1nc(Oc2cncc(F)c2)nc2oc(-c3cc(F)ccc3Cl)nc12 [Example 72, 2-(2-chloro-5-fluoro-phenyl)-5-(5-fluoro-pyridin-3-yloxy)-7-propoxy-oxazolo[5,4-d]pyrimidine]
69%	CCCOc1nc(Oc2ccc(Cl)c(F)c2)nc2oc(-c3cccc(C)c3)nc12 [Example 74, 5-(4-chloro-3-fluoro-phenoxy)-7-propoxy-2-(3-methyl-phenyl)-oxazolo[5,4-d]pyrimidine]
72%	CCCOc1nc(Oc2ccc(OC)cc2F)nc2oc(-c3cccc(C)c3)nc12 [Example 75, 5-(2-fluoro-4-methoxy-phenoxy)-7-propoxy-2-(3-methyl-phenyl)-oxazolo[5,4-d]pyrimidine]
70%	CCCOc1nc(Oc2ccccc2)nc2oc(-c3cc(F)ccc3Cl)nc12 [Example 78, 2-(2-chloro-5-fluoro-phenyl)-5-phenoxy-7-propoxy-oxazolo[5,4-d]pyrimidine]
64%	CCCOc1nc(Oc2cc(F)ccc2C)nc2oc(-c3cc(F)ccc3Cl)nc12 [Example 79, 2-(2-chloro-5-fluoro-phenyl)-5-(5-fluoro-2-methyl-phenoxy)-7-propoxy-oxazolo[5,4-d]pyrimidine]
46%	CCCOc1nc(OC2CCCCC2)nc2oc(-c3cc(F)ccc3Cl)nc12 [Example 80, 2-(2-chloro-5-fluoro-phenyl)-5-cyclohexyloxy-7-propoxy-oxazolo[5,4-d]pyrimidine]
89%	CCCOc1nc(Oc2ccc(C)c(F)c2)nc2oc(-c3cccc(F)c3)nc12 [Example 81, 5-(3-fluoro-4-methyl-phenoxy)-2-(3-fluoro-phenyl)-7-propoxy-oxazolo[5,4-d]pyrimidine]
63%	CCCOc1nc(Oc2cccc3c2OC(C)(C)C3)nc2oc(-c3cccc(C)c3)nc12 [Example 83, 5-(2,2-dimethyl-2,3-dihydro-benzofuran-7-yloxy)-7-propoxy-2-(3-methyl-phenyl)-oxazolo[5,4-d]pyrimidine]
60%	CCCOc1nc(Oc2cccc3c2OC(C)(C)C3)nc2oc(-c3cc(F)ccc3Cl)nc12 [Example 84, 2-(2-chloro-5-fluoro-phenyl)-5-(2,2-dimethyl-2,3-dihydro-benzofuran-7-yloxy)-7-propoxy-oxazolo[5,4-d]pyrimidine]
67%	CCCOc1nc(OC2CCC(C)CC2)nc2oc(-c3cc(F)ccc3Cl)nc12 (stereo not drawn) [Example 85, 2-(2-chloro-5-fluoro-phenyl)-5-(4-methyl-cyclohexyloxy)-7-propoxy-oxazolo[5,4-d]pyrimidine]
86%	CCCOc1nc(Oc2ccc(Cl)cc2C)nc2oc(-c3cccc(C)c3)nc12 [Example 88, 5-(4-chloro-2-methyl-phenoxy)-7-propoxy-2-(3-methyl-phenyl)-oxazolo[5,4-d]pyrimidine]
